± gives the standard deviation of the averaged measurements.
Assay: TIMS collisional cross section (CCS, N2) of the lipid ion; higher = larger ion cross section
Conditions: ionization mode: positive, one isomer drawn

TIMS collisional cross section (sample type: Liver) | TIMS collisional cross section (sample type: plasma) | TIMS collisional cross section (sample type: HeLa) | Compound
326.7 Å² | 326.7 Å² |  | CCCCCCCCCCCCCCCCCC(=O)OC[C@@H](COC(=O)CCCCCCCCCCCCCCC)OC(=O)CCCCCCCCCCCCCCCCC [TG 16:0_18:0_18:0] (ion (formula + adduct): [C55H106O6+NH4] 1+)
324.5 ± 0.14 Å² | 324.45 ± 0.35 Å² | 324.4 Å² | CCCCCCCC/C=C\CCCCCCCC(=O)OC[C@@H](COC(=O)CCCCCCCCCCCCCCC)OC(=O)CCCCCCCCCCCCCCCCC [TG 16:0_18:0_18:1] (ion (formula + adduct): [C55H104O6+NH4] 1+)
329.3 Å² | 329 Å² |  | CCCCCCCCCCCCCCCCCCC(=O)OC[C@@H](COC(=O)CCCCCCCCCCCCCCC)OC(=O)CCCCCCCCCCCCCCCCC [TG 16:0_18:0_19:0] (ion (formula + adduct): [C56H108O6+NH4] 1+)
 | 332.5 ± 0.14 Å² | 332.05 ± 0.21 Å² | CCCCCCCCCCCCCCCCCCCC(=O)OC[C@@H](COC(=O)CCCCCCCCCCCCCCC)OC(=O)CCCCCCCCCCCCCCCCC [TG 16:0_18:0_20:0] (ion (formula + adduct): [C57H110O6+NH4] 1+)
 |  | 330.3 Å² | CCCCCCCC/C=C\CCCCCCCCCC(=O)OC[C@@H](COC(=O)CCCCCCCCCCCCCCC)OC(=O)CCCCCCCCCCCCCCCCC [TG 16:0_18:0_20:1] (ion (formula + adduct): [C57H108O6+NH4] 1+)
338.3 Å² | 337.55 ± 0.21 Å² | 337.8 Å² | CCCCCCCCCCCCCCCCCCCCCC(=O)OC[C@@H](COC(=O)CCCCCCCCCCCCCCC)OC(=O)CCCCCCCCCCCCCCCCC [TG 16:0_18:0_22:0] (ion (formula + adduct): [C59H114O6+NH4] 1+)
322.4 Å² | 322.45 ± 0.21 Å² | 322 Å² | CCCCCCCC/C=C\CCCCCCCC(=O)OC[C@@H](COC(=O)CCCCCCCCCCCCCCC)OC(=O)CCCCCCC/C=C\CCCCCCCC [TG 16:0_18:1_18:1] (ion (formula + adduct): [C55H102O6+NH4] 1+)
 |  | 325.5 Å² | CCCCCCCC/C=C\CCCCCCCC(=O)O[C@@H](COC(=O)CCCCCCC/C=C\CCCCCCCCC)COC(=O)CCCCCCCCCCCCCCC [TG 16:0_18:1_19:1] (ion (formula + adduct): [C56H104O6+NH4] 1+)
330.6 Å² |  |  | CCCCCCCC/C=C\CCCCCCCC(=O)O[C@H](COC(=O)CCCCCCCCCCCCCCC)COC(=O)CCCCCCCCCCCCCCCCCCC [TG 16:0_18:1_20:0] (ion (formula + adduct): [C57H108O6+NH4] 1+)
 |  | 328.4 Å² | CCCCCCCC/C=C\CCCCCCCCCC(=O)OC[C@@H](COC(=O)CCCCCCCCCCCCCCC)OC(=O)CCCCCCC/C=C\CCCCCCCC [TG 16:0_18:1_20:1] (ion (formula + adduct): [C57H106O6+NH4] 1+)
333 Å² | 333.1 Å² |  | CCCCCCCC/C=C\CCCCCCCC(=O)O[C@H](COC(=O)CCCCCCCCCCCCCCC)COC(=O)CCCCCCCCCCCCCCCCCCCC [TG 16:0_18:1_21:0] (ion (formula + adduct): [C58H110O6+NH4] 1+)
336.3 Å² |  | 335.9 Å² | CCCCCCCC/C=C\CCCCCCCC(=O)O[C@H](COC(=O)CCCCCCCCCCCCCCC)COC(=O)CCCCCCCCCCCCCCCCCCCCC [TG 16:0_18:1_22:0] (ion (formula + adduct): [C59H112O6+NH4] 1+)
334.2 Å² |  |  | CCCCCCCC/C=C\CCCCCCCCCCCC(=O)OC[C@@H](COC(=O)CCCCCCCCCCCCCCC)OC(=O)CCCCCCC/C=C\CCCCCCCC [TG 16:0_18:1_22:1] (ion (formula + adduct): [C59H110O6+NH4] 1+)
 | 333.9 Å² |  | CCCCC/C=C\C/C=C\C/C=C\CCCCCCCCC(=O)OC[C@@H](COC(=O)CCCCCCCCCCCCCCC)OC(=O)CCCCCCCCCCCCCCCCCCC [TG 16:0_20:0_22:3] (ion (formula + adduct): [C61H112O6+Na] 1+)

More lines, now with the values behind:

Compound | TIMS collisional cross section (sample type: Liver) | TIMS collisional cross section (sample type: plasma) | TIMS collisional cross section (sample type: HeLa)
CC/C=C\C/C=C\C/C=C\C/C=C\C/C=C\CCCCCC(=O)OC[C@@H](COC(=O)CCCCCCCCCCCCCCC)OC(=O)CCCCCCCCCCCCCCCCC [TG 16:0_18:0_22:5] (ion (formula + adduct): [C59H104O6+NH4] 1+) |  |  | 330.6 Å²
CCCCC/C=C\C/C=C\CCCCCCCC(=O)OC[C@@H](COC(=O)CCCCCCCCCCCCCCC)OC(=O)CCCCCCC/C=C\CCCCCCCC [TG 16:0_18:1_18:2] (ion (formula + adduct): [C55H100O6+NH4] 1+) | 314.1 Å² | 319.7 Å² | 
CCCCC/C=C\C/C=C\C/C=C\C/C=C\CCCC(=O)OC[C@@H](COC(=O)CCCCCCCCCCCCCCC)OC(=O)CCCCCCC/C=C\CCCCCCCC [TG 16:0_18:1_20:4] (ion (formula + adduct): [C57H100O6+NH4] 1+) |  | 324.2 Å² | 324.5 Å²
CCCCC/C=C\C/C=C\C/C=C\C/C=C\CCCCCC(=O)OC[C@@H](COC(=O)CCCCCCCCCCCCCCC)OC(=O)CCCCCCC/C=C\CCCCCCCC [TG 16:0_18:1_22:4] (ion (formula + adduct): [C59H104O6+NH4] 1+) |  | 329.9 Å² | 
CC/C=C\C/C=C\C/C=C\C/C=C\C/C=C\CCCCCC(=O)OC[C@@H](COC(=O)CCCCCCCCCCCCCCC)OC(=O)CCCCCCC/C=C\CCCCCCCC [TG 16:0_18:1_22:5] (ion (formula + adduct): [C59H102O6+NH4] 1+) |  |  | 328.5 Å²
CC/C=C\C/C=C\C/C=C\CCCCCCCC(=O)OC[C@@H](COC(=O)CCCCCCCCCCCCCCC)OC(=O)CCCCCCC/C=C\C/C=C\CCCCC [TG 16:0_18:2_18:3] (ion (formula + adduct): [C55H96O6+NH4] 1+) |  | 315.8 Å² | 
CCCCC/C=C\C/C=C\C/C=C\CCCCCCC(=O)OC[C@@H](COC(=O)CCCCCCCCCCCCCCC)OC(=O)CCCCCCC/C=C\C/C=C\CCCCC [TG 16:0_18:2_20:3] (ion (formula + adduct): [C57H100O6+NH4] 1+) | 322.3 Å² |  | 
CCCCC/C=C\C/C=C\C/C=C\C/C=C\CCCC(=O)OC[C@@H](COC(=O)CCCCCCCCCCCCCCC)OC(=O)CCCCCCC/C=C\C/C=C\CCCCC [TG 16:0_18:2_20:4] (ion (formula + adduct): [C57H98O6+NH4] 1+) |  | 321.2 Å² | 
CC/C=C\C/C=C\C/C=C\C/C=C\C/C=C\CCCC(=O)OC[C@@H](COC(=O)CCCCCCCCCCCCCCC)OC(=O)CCCCCCC/C=C\C/C=C\CCCCC [TG 16:0_18:2_20:5] (ion (formula + adduct): [C57H96O6+NH4] 1+) | 318.1 Å² | 319.9 Å² | 
CCCCC/C=C\C/C=C\C/C=C\C/C=C\CCCCCC(=O)OC[C@@H](COC(=O)CCCCCCCCCCCCCCC)OC(=O)CCCCCCC/C=C\C/C=C\CCCCC [TG 16:0_18:2_22:4] (ion (formula + adduct): [C59H102O6+NH4] 1+) | 328 Å² | 327.9 Å² | 
CC/C=C\C/C=C\C/C=C\C/C=C\C/C=C\C/C=C\CCC(=O)OC[C@@H](COC(=O)CCCCCCCCCCCCCCC)OC(=O)CCCCCCC/C=C\C/C=C\CCCCC [TG 16:0_18:2_22:6] (ion (formula + adduct): [C59H98O6+NH4] 1+) | 325.3 Å² |  | 
CC/C=C\C/C=C\C/C=C\C/C=C\C/C=C\C/C=C\CCC(=O)OC[C@@H](COC(=O)CCCCCCCCCCCCCCC)OC(=O)CCCC/C=C\C/C=C\C/C=C\C/C=C\CC [TG 16:0_18:4_22:6] (ion (formula + adduct): [C59H94O6+NH4] 1+) | 322.1 Å² |  | 
CCCCCCCCCCCCCCCCCCCCCC(=O)OC[C@@H](COC(=O)CCCCCCCCCCCCCCC)OC(=O)CCCCCCCCCCCCCCCCCC [TG 16:0_19:0_22:0] (ion (formula + adduct): [C60H116O6+NH4] 1+) | 340.8 Å² | 340.7 Å² | 341.2 Å²
CC/C=C\C/C=C\C/C=C\C/C=C\C/C=C\CCCCCC(=O)OC[C@@H](COC(=O)CCCCCCCCCCCCCCC)OC(=O)CCCCCCC/C=C\CCCCCCCCC [TG 16:0_19:1_22:5] (ion (formula + adduct): [C60H104O6+NH4] 1+) |  |  | 331.2 Å²
CCCCC/C=C\C/C=C\C/C=C\C/C=C\CCCC(=O)OC[C@@H](COC(=O)CCCCCCCCCCCCCCC)OC(=O)CCCCCCCCCCCCCCCCCCC [TG 16:0_20:0_20:4] (ion (formula + adduct): [C59H106O6+NH4] 1+) | 332.3 Å² |  | 
CCCCCCCCCCCCCCCCCCCCC(=O)OC[C@@H](COC(=O)CCCCCCCCCCCCCCC)OC(=O)CCCCCCCCCCCCCCCCCCC [TG 16:0_20:0_21:0] (ion (formula + adduct): [C60H116O6+NH4] 1+) |  |  | 339.7 Å²
CCCCCCCCCCCCCCCCCCCCCC(=O)OC[C@@H](COC(=O)CCCCCCCCCCCCCCC)OC(=O)CCCCCCCCCCCCCCCCCCC [TG 16:0_20:0_22:0] (ion (formula + adduct): [C61H118O6+NH4] 1+) |  | 343.5 Å² | 344.3 Å²
CC/C=C\C/C=C\C/C=C\C/C=C\C/C=C\C/C=C\CCC(=O)OC[C@@H](COC(=O)CCCCCCCCCCCCCCC)OC(=O)CCCCCCCCCCCCCCCCCCC [TG 16:0_20:0_22:6] (ion (formula + adduct): [C61H106O6+NH4] 1+) | 335.3 Å² |  | 
CC/C=C\C/C=C\C/C=C\C/C=C\C/C=C\C/C=C\CCC(=O)OC[C@@H](COC(=O)CCCCCCCCCCCCCCC)OC(=O)CCCCCC/C=C\C/C=C\C/C=C\CCCCC [TG 16:0_20:3_22:6] (ion (formula + adduct): [C61H100O6+NH4] 1+) | 329.3 Å² |  | 329.4 Å²
